The values that follow come from US20030064967A1 (priority 2001, published 2003).

Where “and” joins values, the source holds several entries; their conditions need not be identical. Identical values can stand only once.

The format of data set [1] is in vivo. The following applies: one study; 150 mg/kg/d by gavage in methylcellulose.
Data set [2] concerns HepG2 cells. Description: Cell culture assay and ELISA for apoAI HDL increase in HepG2 cells. Type of data set: cell-based, human. The procedure: A cell culture assay and ELISA was conducted to measure apoAi HDL increase in HepG2 cells were obtained from the American Type Culture Collection (Rockville, Md.). Fetal bovine serum (FBS) was purchased from Gibco Laboratories. Cells were cultured in minimum essential medium (MEM) containing 10% FBS, and 100 μg/mL of streptomycin, 100 unit/mL of penicillin, and 4 mM of glutamine (Gibco/BRL). Cells were grown for 2 days till they are 80% confluent in 6-well, or 12-well plates before studies. In all cases medium was changed every other day. To measure apoAI, 96-well microtiter plates were coated with a 1:1000 diluted mixture of three monoclonal antibodies against human apoAI (A05, A17, and A44) for 2 h and incubated in succession with HDL3 (0 to 15 ng/well), sheep polyclonal anti-apoAI serum (Boehringer Mannheim), alkaline phosphatase-labeled rabbit anti-sheep (Cappel), and p-nitrophenyl phosphate (1 mg/mL in 10 mmol/L ethanolamine, 0.5 mmol/L MgCl2, pH 9.5), for 2, 1 and 1 h respectively at 37° C. The plates were washed three times between different incubations. The absorbance at 405 nm was determined by using a Bio-Rad model 550 microplate reader (Bio-Rad).

Data set [3] deals with HepG2 cells. Description: Uptake of 3[H]cholesteryl hexadecyl ether-labeled HDL in HepG2 cells. Type of data set: cell-based. The settings on record: for % 3[H]-CE uptake: 12.5 μM compound, 20-50 μg/mL 3[H]-CE HDL, 3.5 h, 37° C.; for clearance / selective uptake of cholesteryl ester: HepG2 cells. As for the experimental part: An in vitro assay was conducted to measure the uptake of ^3[H]cholesteryl Hexadecyl Ether-labeled HDL in HepG2 cells. ^3[H]cholesteryl Hexadecyl Ether-labeled HDL was prepared as described by Rodrigueza et al. (Rodrigueza W. V. et al. (1999) J. Biol. Chem. 274:20344-20350). 40 μCi of ^3[H]hexadecyl ether (40-60 Ci/mmol, NEN life Sciences Products) were incubated with 5 mg of HDL3 and 240 mg of heat-inactivated lipoprotein-deficient plasma, 0.01% aprotinin in a polypropylene tube sealed with nitrogen gas for 40 h at 37° C. according to the method of Terpstra et al . ^3[H]-CE enriched HDL was re-isolated by flotation ultracentrifugation and dialyzed against phosphate-buffered saline (PBS). To perform CE uptake studies, HepG2 cells, seeded in 6 or 12 well plates were grown for 2 days till 80% confluent and, then treated with compounds in 1% RSA-DMEM medium for 24 h. The next day, cells were treated with 12.5 μM compounds and 20-50 μg/mL of ^3[H]-CE HDL for 3.5 h at 37° C. After incubation, cells were washed 4 times with PBS/BSA and 2 times with PBS, followed by addition of 0.1 N NAOH. Cells were collected, and radioactivity was measured in counts per minute and expressed as percent of ^3[H]-CE delivered to cells.

For data set [4], the system named is human apo A-1 transgenic mice. Description: HDL cholesterol and human apoAI levels in human apo-A1 transgenic mice (InVivo II). The data set is classed as in vivo. As for the experimental part:
The following assay was conducted to evaluate the effect of Compound A on HDL cholesterol levels in Human apo-A1 transgenic mice. Six-eight week old male human apo A-1 transgenic mice (catolog number JR 1927) were obtained from Jackson Labs. Upon arrival the mice were acclimated for three days on standard rodent diet and water ad libitum. Mice were then given a diet supplemented with 1.25% cholesterol, 7.5% cocoa butter and 0.5% sodium cholate for two weeks. Compound A was administered to the animals by gavage in methylcellulose at a dose of 150 mg/kg/d for two weeks concomitant with the high fat diet. At the end of the treatment period the mice were fasted overnight and then euthanized by CO2 inhalation. Blood was collected by cardiac puncture. Plasma was fractionated by fast phase liquid chromatography and cholesterol in the different lipoprotein fractions determined by an enzymatic assay. An ELISA was completed shoing an increase of h-apoAI of 65%.

Data set [5] has as its system hypercholesterolemic hamsters. The data set is classed as in vivo. The procedure:
The following assay was conducted to HDL elevation in hamsters. Male Golden Syrian hamsters weighing 110-120 g were obtained from Charles River Laboratories (Wilmington, Mass.). Hamsters were housed individually with wood chip bedding and soft nesting material with lights on a 6 A.M. and off at 6 p.m. Upon arrival the hamsters were acclimated for three days on standard rodent chow and water (Purina rodent chow 5001) ad libitum. Prior to dosing, the hamsters were made hypercholesterolemic by feeding them a powdered diet supplemented with 0.5% cholesterol and 10% coconut oil (Harlan Teklad diet #97235) for one week. Water was added to the powdered chow to form a paste and the chow paste rolled into balls with each animal receiving 20 g of chow paste per day in stainless steel bowls. Chow intake was recorded daily. Body weights were recorded after one week and at the end of the end of the study. Hamsters were distributed into treatment groups after the one-week pretreatment period such that each group had similar average body weights.
Compounds were added to a high cholesterol chow paste and administered as an admixture at the same time each morning for two weeks. At the end of the treatment period the hamsters were fasted in the late afternoon on the day prior to blood collection. Fasting was achieved by transferring the hamsters to clean cages and removing chow stored in cheek pouches. Hamsters were anesthetized with ketamine/rompun solution. When unresponsive to toe pinch and still respiring, blood was collected via cardiac puncture from which plasma was separated and frozen at −80° C.
Lipoproteins were isolated from whole plasma by Fast Phase Liquid Chromatography (FPLC). Cholesterol and triglyceride concentrations in the different lipoprotein fractions were determined by enzymatic methods using a CX-5 chemical analyzer and standard Beckman reagents.
A Dunnetts test was used to compare the experimental and control groups. P<0.05: was considered significant.

For data set [6], the system named is HepG2 cells. Nature of the data set: Internalization and degradation of 125I-HDL3 by HepG2 cells. Type of data set: cell-based. As for the experimental part:
In another aspect of the invention, compounds that increase the levels of plasma HDL holoproteins can be selected using the following process. First, the compound is added to a hepatic model, preferably hepatic cells, more preferably HepG2 cells. Labeled apoAI-HDL, preferably a radioactive isotope label, more preferably ^125I, in the presence or absence of compounds is then added to the cells. The […] labeled apoAI-HDL in the conditioned medium represents degraded labeled apoAI-HDL. After washing and detaching, cells are centrifuged. Labeled apoAI-HDL in the cellular fraction represents internalized HDL holoprotein; whereas, label in the supernatant represents cell surface bound apoAI-HDL that has been dissociated. Increased amounts of labeled HDL in cells treated with compounds versus cells not treated with compounds indicates increased degradation, internalization, or binding to the cell surface. Compounds are selected which […] the amount of apoAI-HDL label in the cellular fraction of the cells contacted with a test compound compared to the amount of label in the cellular fraction of the cells not contacted with the test compound.
In another aspect of the invention, compounds that increase the levels of plasma HDLc can be selected by contacting a hepatic model, preferably hepatic cells, more preferably HepG2 cells with test compounds. Labeled apoAI-HDL, preferably a radioactive isotope label, more preferably ^125I, in the presence or absence of compounds is then added to the cells. Label in the conditioned medium represents degraded labeled-HDL. After washing and detaching, cells are centrifuged. Label in the cellular fraction represents internalized HDL holoprotein; whereas, label in the supernatant represents cell surface bound apoAI-HDL that has been dissociated. Increased amounts of label in cells treated with compounds versus cells not treated with compounds indicates increased degradation, internalization, or binding of apoAI-HDL to the cell surface. […]

In another data set the test system is apoAI. Description: Synthesis of apoAI.

As to `CC(C)(Sc1cc(C(C)(C)C)c(O)c(C(C)(C)C)c1)Sc1cc(C(C)(C)C)c(OC(=O)CCCOS(=O)(=O)[O-])c(C(C)(C)C)c1.[Na+]` [Compound B, 4-[4-[1-[[3,5-bis(1,1-dimethylethyl)-4-hydroxyphenyl]thio]-1-methylethyl]-thio-2,6-bis-(1,1-dimethyl-ethyl)phenoxy]-4-oxo-1-butyl Sodium Sulfate], the mortality result in data set [1] is given as “all of the mice died”. Besides, in the data set on HepG2 cells [2], the “% increase apoAI HDL” value worked out at 26%. In the data set on HepG2 cells [3], the “% 3[H]-CE uptake” value came to 44% and the “clearance / selective uptake of cholesteryl ester” value was “enhance the clearance of cholesteryl ester”.
With `CC(C)(Sc1cc(C(C)(C)C)c(O)c(C(C)(C)C)c1)Sc1cc(C(C)(C)C)c(OC(=O)CCCC(=O)O)c(C(C)(C)C)c1` [Compound A, Pentanedioic Acid, mono[4-[[1-[[3,5-bis(1,1-dimethylethyl)-4-hydroxyphenyl]thio]-1-methylethyl]thio]-2,6-bis(1,1-dimethylethyl)phenyl]ester], in the data set on HepG2 cells [2], the “% increase apoAI HDL” value worked out at 33%. In addition, the “increase of human apoAI (ELISA)” value in data set [4] (150 mg/kg/d by gavage, two weeks, high fat diet) was 64% and 65%. Further, the “increase in HDL cholesterol (FIG. 7)” value in data set [4] (hypercholesterolemic human apo-AI transgenic mice) amounted to 71%. For the same compound, in data set [5] (150 mg/kg/d, two weeks), the “HDLc elevation, range of three experiments” value is 5-44%; the body weight result is “all animals gained weight”; the tolerability entry is on record as “well tolerated”. In addition, in data set [5] (average of three experiments, 150 mg/kg/d, two weeks, in chow), the “HDLc elevation compared to untreated controls” value stood at 22%. Besides, the “LDLc reduction compared to controls” value in data set [5] (average, n=3, 150 mg/kg/d, two weeks) is 29%. Moreover, the “increase in HDL cholesterol levels (FIG. 1)” value in data set [5] (hypercholesterolemic hamsters) is 24%. For the same compound, in data set [5] (n=3, 150 mg/kg/d, two weeks), the “VLDL cholesterol reduction compared to controls” value was determined as 42%; the “VLDL cholesterol reduction, range” value is reported as 22-53%; the “triglycerides reduction compared to controls” value stood at 24%; the “triglycerides reduction, range” value is on record as 7-33%. Also, in the data set on HepG2 cells [6], the “degradation of 125I-HDL3” value is on record as “decreases degradation” and the “internalization of 125I-HDL3 / HDL holoprotein uptake” value is “decreases internalization”. For the same compound, in the data set with HepG2 cells [3], the “% 3[H]-CE uptake” value is given as 42% and the “clearance / selective uptake of cholesteryl ester” value was “enhance the clearance of cholesteryl ester”.
Turning to `COC(=O)CCCC(=O)Oc1c(C(C)(C)C)cc(SC(C)(C)Sc2cc(C(C)(C)C)c(O)c(C(C)(C)C)c2)cc1C(C)(C)C` [Compound D, Pentanedioic Acid, [4-[1-[[3,5-bis(1,1-dimethylethyl)-4-hydroxyphenyl]thio]-1-methylethyl]-thio-2,6-bis(1,1-dimethylethyl)phenyl], Methyl Ester], in the data set with HepG2 cells [2], the “% increase apoAI HDL” value stood at 27%.
As to `CC(C)(Sc1cc(C(C)(C)C)c(O)c(C(C)(C)C)c1)Sc1cc(C(C)(C)C)c(O)c(C(C)(C)C)c1` [Probucol, 4,4′-(isopropylidenedithio) bis(2,6-di-tert-butylphenol), reference compound], in the data set on HepG2 cells [2], the “% increase apoAI HDL” value is −21%. For the same compound, the “internalization of 125I-HDL3 / HDL holoprotein uptake” value with HepG2 cells [6] is reported as “reduced HDL holoprotein uptake”. Also, the “effect on synthesis of apoAI” value with apoAI is on record as “reduced the synthesis of apoAI”. Also, the “% 3[H]-CE uptake” value with HepG2 cells [3] is reported as 13%.
Take `CC(C)(Sc1cc(C(C)(C)C)c(O)c(C(C)(C)C)c1)Sc1cc(C(C)(C)C)c(OC(=O)COCC(=O)O)c(C(C)(C)C)c1` [Compound C, Carboxymethoxyacetic Acid, mono[4-[1-[[3,5-bis(1,1-dimethylethyl)-4-hydroxyphenyl]thio]-1-methyl-ethyl]-thio-2,6-bis(1,1-dimethylethyl)phenyl]ester]: in the data set on HepG2 cells [2], the “% increase apoAI HDL” value is given as 47%.
